Results reported in patent US8349886B2, “Nitrogenated 5-membered heterocyclic compound” (Takeda Pharmaceutical Company Limited, priority 2008, dated 2013).

The compounds below were run against T1, GST-hLGK1 (human liver type GK) (Homo sapiens, UniProt P35557) (assay: Measurement of GK activation value (Mant-ATP/Mant-ADP capillary electrophoresis)). Conditions: test compound 10 μmol/L; 5 mmol/L D-glucose; reaction rate as percentage of control group without test compound.
T1 construct: made in house; host or cells: Escherichia coli BL21 (Stratagene), plasmid pGEX6P-2/hLGK1
T1 sequence (P35557 1-464 isoform P35557-3): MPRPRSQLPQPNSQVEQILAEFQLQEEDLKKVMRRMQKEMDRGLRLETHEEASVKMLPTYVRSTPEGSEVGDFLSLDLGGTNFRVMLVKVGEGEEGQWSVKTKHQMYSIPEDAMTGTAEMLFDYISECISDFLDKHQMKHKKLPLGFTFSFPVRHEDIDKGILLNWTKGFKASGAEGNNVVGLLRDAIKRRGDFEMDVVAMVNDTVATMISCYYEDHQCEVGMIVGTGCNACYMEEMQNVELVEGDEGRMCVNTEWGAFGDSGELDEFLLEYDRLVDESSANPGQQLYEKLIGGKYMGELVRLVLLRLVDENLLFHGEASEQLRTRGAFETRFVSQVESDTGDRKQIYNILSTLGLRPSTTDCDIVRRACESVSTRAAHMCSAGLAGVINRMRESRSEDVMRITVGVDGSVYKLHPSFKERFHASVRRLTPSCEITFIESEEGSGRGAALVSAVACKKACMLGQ
Assay type: biochemical
Experimental: A plasmid DNA used for expression of a protein (GST-hLGK1) having GST (Glutathione S-transferase) added to the amino terminal of human liver type GK in Escherichia coli was prepared as follows.
BL21 strain (Stratagene) transformed with pGEX6P-2/hLGK1 obtained in Reference Example 1A was cultured with shaking in a 200 ml Erlenmeyer flask containing LB medium (50 ml) containing 100 μg/ml ampicillin at 37° C. for 14 hr. The cultured broth (25 ml) was diluted with LB medium (225 ml) containing 100 μg/ml ampicillin, and cultured with shaking in a 1 L Erlenmeyer flask at 37° C. for 1 hr. The Erlenmeyer flask after culture was cooled on ice, 100 mM Isopropyl-Thio-β-D-Galactopyranoside (IPTG) (125 μL) was added (final concentration 50 μM), and the cells were cultured at 17° C. for 20 hr. The cultures broth was centrifuged, and the obtained cells were disrupted by ultrasonication, and the object protein (GST-hLGK1) was purified from the supernatant using Glutathione Sepharose 4B (Amersham Biosciences).
GK enzyme reactions were performed in 50 mmol/L HEPES pH7.4, 200 mmol/L KCl, 5 mmol/L MgCl2, 2 mmol/L DTT, containing 50 μmol/L 2′-(or-3′)-O—(N-methylanthraniloyl)adenosine 5′-triphosphate (Mant-ATP) (Jena Bioscience GmbH), 5 mmol/L D-glucose, 5% DMSO and 6 μg/mL GST-hLGK1 obtained in Reference Example 2A in a total volume 50 μL. The reactions were performed in 384 well black plates (Nalge Nunc International K.K.). Prior to the reaction, the enzyme and test compound were incubated for 10 min at 37° C., and 25 mM D-glucose solution (10 μL) was added to start the reaction. The final concentration of the test compound is 10 μmol/L. After the incubation for 60 min at 37° C., the reaction was quenched by adding 25 μL of a quenching solution (containing 200 mM HEPES (pH 7.4), 20 mM MgCl2, 200 mM EDTA, 0.03% Triton-X 100, 0.3% Coating 3 reagent (Caliper Life Sciences, Inc.)).
Mant-ATP (substrate, 2′-(or-3′)-O—(N-methylanthraniloyl)adenosine 5′-triphosphate) and Mant-ADP (reaction resultant product) were separated from each well after the reaction by a microchip type capillary electrophoresis apparatus 250 HTS (Caliper Life Sciences, Inc.). The reaction rate [(reaction resultant product peak height)/(reaction resultant product peak height+substrate peak height)×100(%)] was calculated from the ratio of the substrate peak height and reaction resultant product peak height obtained by fluorescence detection (excitation wavelength 355 nm, measurement wavelength 460 nm) and used as the index of GK activity.
As a control group, the reaction rate was calculated in the same manner as above without the test compounds. […]

Compared with COc1ccc2c(cnn2C(CC2CCOCC2)c2ccc(-c3ccc(C(O)C(C)(C)O)cn3)[nH]2)c1S(=O)(=O)C1CC1 (stereo not shown) [Example 5, 1-[6-(5-{1-[4-(cyclopropylsulfonyl)-5-methoxy-1H-indazol-1-yl]-2-(tetrahydro-2H-pyran-4-yl)ethyl}-1H-pyrrol-2-yl)pyridin-3-yl]-2-methylpropane-1,2-diol], CC(C)(O)C(O)c1ccc(-c2ccc(C(CC3CCOCC3)n3ncc4c(S(=O)(=O)C5CC5)cccc43)[nH]2)nc1 (stereo not shown) [Example 4, 1-[6-(5-{1-[4-(cyclopropylsulfonyl)-1H-indazol-1-yl]-2-(tetrahydro-2H-pyran-4-yl)ethyl}-1H-pyrrol-2-yl)pyridin-3-yl]-2-methylpropane-1,2-diol] is lower in Emax at 10 µM: 162% for the first, 161% for the second.

Compared with COc1ccnc2c1cnn2C(CC1CCOCC1)c1ccc(-c2ccc(C(O)C(C)(C)O)cn2)[nH]1 (stereo not shown) [Example 3, 1-(6-{5-[1-(4-methoxy-1H-pyrazolo[3,4-b]pyridin-1-yl)-2-(tetrahydro-2H-pyran-4-yl)ethyl]-1H-pyrrol-2-yl}pyridin-3-yl)-2-methylpropane-1,2-diol], Cn1nc(C(CC2CCOCC2)c2ccc(-c3ncc(CO)s3)[nH]2)cc1S(C)(=O)=O (stereo not shown) [Example 2, [2-(5-{1-[1-methyl-5-(methylsulfonyl)-1H-pyrazol-3-yl]-2-(tetrahydro-2H-pyran-4-yl)ethyl}-1H-pyrrol-2-yl)-1,3-thiazol-5-yl]methanol] is higher in Emax at 10 µM: 124% for the first, 138% for the second.
